These results are taken from patent US11292798B2, “Merocyanine-based compound and biomolecular labeling dye, kit and contrast agent composition comprising same” (SFC CO., LTD., priority 2017, dated 2022).

A short description of this series: absorption spectrum, light emission spectrum, molecular extinction coefficient and quantum efficiency in solvents. The format is physicochemical.

Consider `CC1(C)C2=C3C=C(CC(=O)[O-])C(=O)OC3CCN2c2ccc(S(=O)(=O)[O-])cc21.[Na+].[Na+]` (centres unmarked) [Compound 64], for which the “ε (molecular extinction coefficient)” value (solvent CH2Cl2) is recorded as 22,000 Lmol^−1cm^−1; the “ε (molecular extinction coefficient)” value (solvent DMSO) is given as 26,000 Lmol^−1cm^−1; the “ε (molecular extinction coefficient)” value (solvent EtOH) is on record as 28,000 Lmol^−1cm^−1; the “ε (molecular extinction coefficient)” value (solvent H2O) is on record as 26,000 Lmol^−1cm^−1; the “ε (molecular extinction coefficient)” value (solvent PBS) is reported as 27,000 Lmol^−1cm^−1. The same compound yielded a λem (solvent CH2Cl2) of 468 nm; a λem (solvent DMSO) of 472 nm; a λem (solvent EtOH) of 483 nm; a λem (solvent H2O) of 500 nm; a λem (solvent PBS) of 503 nm. Moreover, the λex was found to be 414 nm (solvent CH2Cl2); 412 nm (solvent DMSO); 408 nm (solvent EtOH); 422 nm (solvent H2O); 423 nm (solvent PBS). Further, the “φ (quantum efficiency)” value amounted to 0.01 (solvent CH2Cl2); 0.84 (solvent DMSO); 0.78 (solvent EtOH); 0.91 (solvent H2O); 0.95 (solvent PBS).

Regarding `COC(=O)C1=CC2=C3N(CCC2OC1=O)c1ccccc1C3(C)C` (centres unmarked) [Compound 1], for the setting “solvent DMSO”, the “ε (molecular extinction coefficient)” value is 63,000 Lmol^−1cm^−1, the λem was determined as 479 nm, the λex is 456 nm and the “φ (quantum efficiency)” value turned out to be 0.900.

Turning to `COC(=O)C1=CC2=C3N(CCC2OC1=O)c1ccc2ccccc2c1C3(C)C` (centres unmarked) [Compound 6], under “solvent DMSO”, the “ε (molecular extinction coefficient)” value is recorded as 53,000 Lmol^−1cm^−1, the λem is recorded as 503 nm, the λex amounted to 474 nm and the “φ (quantum efficiency)” value was 0.928.

In the case of `CC(=O)C1=CC2=C3N(CCC2OC1=O)c1ccc2ccccc2c1C3(C)C` (centres unmarked) [Compound 9], for the setting “solvent DMSO”, the “ε (molecular extinction coefficient)” value was 47,000 Lmol^−1cm^−1, the λem was 516 nm, the λex was found to be 492 nm and the “φ (quantum efficiency)” value is 0.910.

As to `CC1(C)C2=C3C=C(C(=O)CCCC(=O)[O-])C(=O)OC3CCN2c2ccc3cc(S(=O)(=O)[O-])ccc3c21.[Na+].[Na+]` (centres unmarked) [Compound 16], the “ε (molecular extinction coefficient)” value reads like this: (solvent CH2Cl2) 49,000 Lmol^−1cm^−1; (solvent DMSO) 47,000 Lmol^−1cm^−1; (solvent EtOH) 47,000 Lmol^−1cm^−1; (solvent H2O) 48,000 Lmol^−1cm^−1; (solvent PBS) 51,000 Lmol^−1cm^−1. In addition, the λem by setting is: (solvent CH2Cl2) 515 nm; (solvent DMSO) 519 nm; (solvent EtOH) 516 nm; (solvent H2O) 516 nm; (solvent PBS) 516 nm. Moreover, the λex runs as follows: (solvent CH2Cl2) 488 nm; (solvent DMSO) 494 nm; (solvent EtOH) 490 nm; (solvent H2O) 492 nm; (solvent PBS) 492 nm. For the same compound, the “φ (quantum efficiency)” value is given as 0.137 (solvent CH2Cl2); 0.935 (solvent DMSO); 0.872 (solvent EtOH); 0.405 (solvent H2O); 0.417 (solvent PBS).

In the case of `CC1(C)C2=C3C=CC(=O)OC3CCN2c2ccc(S(=O)(=O)[O-])cc21.[Na+]` (centres unmarked) [Compound 3], the “ε (molecular extinction coefficient)” value is 22,000 Lmol^−1cm^−1 (solvent CH2Cl2); 27,000 Lmol^−1cm^−1 (solvent DMSO); 28,000 Lmol^−1cm^−1 (solvent H2O); 27,000 Lmol^−1cm^−1 (solvent MeOH); 28,000 Lmol^−1cm^−1 (solvent PBS). Also, the λem is, setting by setting: (solvent CH2Cl2) 464 nm; (solvent DMSO) 470 nm; (solvent H2O) 492 nm; (solvent MeOH) 484 nm; (solvent PBS) 492 nm. Moreover, the λex runs as follows: (solvent CH2Cl2) 403 nm; (solvent DMSO) 416 nm; (solvent H2O) 423 nm; (solvent MeOH) 410 nm; (solvent PBS) 423 nm. Moreover, the “φ (quantum efficiency)” value turned out to be 0.227 (solvent CH2Cl2); 0.645 (solvent DMSO); 0.764 (solvent H2O); 0.667 (solvent MeOH); 0.759 (solvent PBS).

As to `CC1(C)C2=C3C=C(CC(=O)O)C(=O)OC3CCN2c2ccccc21` (centres unmarked) [Compound 63], the “ε (molecular extinction coefficient)” value by setting is: (solvent CH2Cl2) 15,000 Lmol^−1cm^−1; (solvent DMSO) 15,000 Lmol^−1cm^−1; (solvent EtOH) 15,000 Lmol^−1cm^−1; (solvent H2O) 17,000 Lmol^−1cm^−1; (solvent PBS) 17,000 Lmol^−1cm^−1. Also, the λem is recorded as 466 nm (solvent CH2Cl2); 470 nm (solvent DMSO); 485 nm (solvent EtOH); 506 nm (solvent H2O); 507 nm (solvent PBS). The λex worked out at 414 nm (solvent CH2Cl2); 416 nm (solvent DMSO); 416 nm (solvent EtOH); 432 nm (solvent H2O); 434 nm (solvent PBS).

Turning to `CCOC(=O)CCCC(=O)C1=CC2=C3N(CCC2OC1=O)c1ccc2ccccc2c1C3(C)C` (centres unmarked) [Compound 62], the “ε (molecular extinction coefficient)” value is recorded as 42,000 Lmol^−1cm^−1 (solvent CH2Cl2); 46,000 Lmol^−1cm^−1 (solvent DMSO); 47,000 Lmol^−1cm^−1 (solvent EtOH); 26,000 Lmol^−1cm^−1 (solvent H2O); 29,000 Lmol^−1cm^−1 (solvent PBS). Moreover, the λem by setting is: (solvent CH2Cl2) 511 nm; (solvent DMSO) 516 nm; (solvent EtOH) 516 nm; (solvent H2O) 520 nm; (solvent PBS) 520 nm. The λex is listed as 486 nm (solvent CH2Cl2); 492 nm (solvent DMSO); 486 nm (solvent EtOH); 468 nm (solvent H2O); 486 nm (solvent PBS). Besides, the “φ (quantum efficiency)” value reads like this: (solvent CH2Cl2) 0.944; (solvent DMSO) 0.958; (solvent EtOH) 0.820; (solvent H2O) 0.194; (solvent PBS) 0.193.

Regarding `CC1(C)C2=C3C=C(C(=O)[O-])C(=O)OC3CCN2c2ccccc21.[Na+]` (centres unmarked) [Compound 5], under “solvent DMSO”, the “ε (molecular extinction coefficient)” value was 49,000 Lmol^−1cm^−1, the λem was found to be 490 nm, the λex is given as 466 nm and the “φ (quantum efficiency)” value came to 0.913. Further, for the setting “solvent EtOH”, the “ε (molecular extinction coefficient)” value is reported as 51,000 Lmol^−1cm^−1, the λem was determined as 485 nm, the λex amounted to 462 nm and the “φ (quantum efficiency)” value is on record as 0.412. For the setting “solvent H2O”, the “ε (molecular extinction coefficient)” value is recorded as 50,000 Lmol^−1cm^−1, the λem is given as 483 nm, the λex is recorded as 452 nm and the “φ (quantum efficiency)” value was 0.062. Where the note is “solvent PBS”, the “ε (molecular extinction coefficient)” value is 49,000 Lmol^−1cm^−1, the λem is reported as 483 nm, the λex is listed as 454 nm and the “φ (quantum efficiency)” value came out at 0.633.

Take `CC1(C)C2=C3C=C(C(=O)O)C(=O)OC3CCN2c2cc3c(cc21)-c1ccccc1C3(C)C` (centres unmarked) [Compound 61]: the “ε (molecular extinction coefficient)” value was 46,000 Lmol^−1cm^−1 (solvent CH2Cl2); 47,000 Lmol^−1cm^−1 (solvent DMSO); 49,000 Lmol^−1cm^−1 (solvent EtOH); 46,000 Lmol^−1cm^−1 (solvent H2O); 46,000 Lmol^−1cm^−1 (solvent PBS). Besides, the λem was 522 nm (solvent CH2Cl2); 525 nm (solvent DMSO); 525 nm (solvent EtOH); 516 nm (solvent H2O); 518 nm (solvent PBS). Moreover, the λex by setting is: (solvent CH2Cl2) 484 nm; (solvent DMSO) 480 nm; (solvent EtOH) 480 nm; (solvent H2O) 468 nm; (solvent PBS) 468 nm.

`CC1(C)C2=C3C=C(C(=O)[O-])C(=O)OC3CCN2c2ccc(S(=O)(=O)[O-])cc21.[Na+].[Na+]` (centres unmarked) [Compound 2]: the “ε (molecular extinction coefficient)” value is on record as 20,000 Lmol^−1cm^−1 (solvent CH2Cl2); 30,000 Lmol^−1cm^−1 (solvent DMSO); 45,000 Lmol^−1cm^−1 (solvent H2O); 50,000 Lmol^−1cm^−1 (solvent MeOH); 44,000 Lmol^−1cm^−1 (solvent PBS). Moreover, the λem is listed as 495 nm (solvent CH2Cl2); 500 nm (solvent DMSO); 489 nm (solvent H2O); 493 nm (solvent MeOH); 487 nm (solvent PBS). The λex turned out to be 429 nm (solvent CH2Cl2); 468 nm (solvent DMSO); 453 nm (solvent H2O); 463 nm (solvent MeOH); 451 nm (solvent PBS). The “φ (quantum efficiency)” value is given as 0.169 (solvent CH2Cl2); 0.768 (solvent DMSO); 0.718 (solvent H2O); 0.625 (solvent MeOH); 0.796 (solvent PBS).

Consider `COC(=O)C1=CC2=C3N(CCC2OC1=O)c1cc2c(cc1C3(C)C)-c1ccccc1C2(C)C` (centres unmarked) [Compound 60], for which the “ε (molecular extinction coefficient)” value runs as follows: (solvent CH2Cl2) 41,000 Lmol^−1cm^−1; (solvent DMSO) 42,000 Lmol^−1cm^−1; (solvent EtOH) 42,000 Lmol^−1cm^−1; (solvent H2O) 38,000 Lmol^−1cm^−1. Also, the λem was determined as 511 nm (solvent CH2Cl2), 513 nm (solvent DMSO), 519 nm (solvent EtOH) and 523 nm (solvent H2O). The same compound had a λex (solvent CH2Cl2) of 470 nm, a λex (solvent DMSO) of 476 nm, a λex (solvent EtOH) of 474 nm and a λex (solvent H2O) of 476 nm.
